Laboratory results taken from US12440451B2, “Compositions and methods using an epigenetic inhibitor” (DANA-FARBER CANCER INSTITUTE, INC., priority 2017, dated 2025).

Tests used:
[1] = system: B16-Ova cells; assay: in vitro 51Cr release cytotoxicity assay of activated OT-I+ CD8+ T cells against target cells; assay type: cell-based, mouse; conditions: for specific lysis of cells expressing target antigen: 4 hours co-incubation, FIG. 4A
Experimental: In order to functionally assess the phenotype of OT-I^+ CD8^+ T cells activated in the presence of RGFP966, the ability of the activated T cells to kill B16 melanoma tumor cell targets expressing the cognate SIINFEKL (SEQ ID NO: 1) antigen of the OT-I TCR was assayed. The B16-Ova cells were engineered to express chicken ovalbumin in their cytosol, and express SIINFEKL (SEQ ID NO: 1) on Kb MHC I molecules when treated with IFN-γ. In preparation for the cytotoxicity assay, B16-Ova cells were treated with 10 ng/ml IFN-γ for 48 hours prior to harvest and loading with ^51Cr radionuclide. After radiolabeling, B16-Ova cells were seeded into 96-well plates (5×10^3/well) and allowed to adhere for 1 hour prior to addition of CD8^+ effector cells. OT-I^+ CD8^+ T cells were activated as described above using SIINFEKL-pulsed BMDCs in the presence of 10 μM, 1 μM, or 0 μM RGFP966. After 7 days of activation, T cells were harvested, washed to remove the drug, and counted. OT-I^+ CD8^+ effector cells were added to the assay plates containing B16-Ova target cells at the indicated ratios: there was no drug present during the cytotoxicity assay. Specific killing of targets was assessed by measurement of 51Cr release into the culture supernatant 4 hours after co-culture. To verify that genetic ablation of HDAC3 functionally recapitulated the augmented cytotoxic effector phenotype of HDAC3 inhibition using RGFP966, HDAC3-KO T cells were generated from OT-I^+ CD8^+ Cas9^+ T cells as described above, and compared with RGFP966-treated T cells from the same batch in an in vitro cytotoxicity assay.

[2] = system: H3K27-ac in CD8+ T cells; assay: H3K27-ac ChIP-sequencing of activated CD8+ T cells; assay type: cell-based, mouse; conditions: days 5 and 7 post-activation
Experimental: ChIP-sequencing was then performed to survey the genomic landscape of H3K27 acetylation in the absence or the presence of HDAC3 activity on days 5 and 7 post-activation using the same in vitro activation co-culture system as in as described in FIG. 1 and Example 1 above.
FIGS. 9C-9H show H3K27-ac ChIP-sequence tracks, from top to bottom: naïve CD8^+ T cells (day 0): control-treated cells, day 5 post-activation: RGFP966-treated cells, day 5 post-activation: control-treated cells, day 7 post-activation: RGFP966-treated cells, day 7 post-activation. Arrows under gene names indicate direction of transcription. Tracks were visualized with the IGV genome browser (Broad Institute, MA).

`Nc1cc(F)ccc1NC(=O)/C=C/c1cnn(C/C=C/c2ccccc2)c1` [RGFP966] was tested, and the “killing of cognate antigen-expressing target cells” value ([1]; T cells activated in the presence of the drug, dose-dependent) was “kill cognate antigen-expressing target cells more effectively than untreated cells”, the “cytotoxicity compared with control treatment” value ([1]; T cells activated with 1 μM) was “modest but non-significant increase in cytotoxicity” and the “specific lysis of cells expressing target antigen” value ([1]; T cells activated with 1 μM) was “about 45%”. The “specific lysis of cells expressing target antigen” value ([1]; T cells activated with 10 μM) was roughly 70%, the “H3K27-ac at GzmB, Fasl, ID2, PRDM1 and TBX21” value [2] was “increased H3K27-ac” and the “H3K27-ac at RUNX3” value [2] was “increased H3K27-ac”. For the same compound, the “H3K27ac at loci of effector cytokines, EOMES and BCL6” value ([2]; data not shown) was “no significant changes”.
